In PubChem BioAssay AID1963969 (Molecular Pharmacology Branch, DTP, NCI, 2024):

Test system: 817829-284-R-J1-PDC multi-cell spheroid viability
Test: Anticancer human tumor 817829-284-R-J1-PDC patient-derived colon adenocarcinoma cell line growth inhibition [PI3K]
Settings: for IC50: curve of first compound; for viability, T/C: stronger effect = lower value
Summary of the method: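 Tumor cells grown as multi-cell spheroids with HUVEC endothelial cells and MSC fibroblast-like stroma were treated with targeted agents combined with inavolisib, alpelisib, duvelisib or copanlisib. Doses fell in half-log steps from near clinical Cmax, else from 10 microM. Viability was measured.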

[1] = second compound 0.00316 µM, first compound 0.0316 µM
[2] = second compound 0.00316 µM, first compound 0.1 µM
[3] = second compound 0.00316 µM, first compound 0.316 µM
[4] = second compound 0.00316 µM, first compound 1 µM
[5] = second compound 0.00316 µM, first compound 3.16 µM
[6] = second compound 0.00316 µM, first compound 10 µM
[7] = second compound 0.01 µM, first compound 0.0316 µM
[8] = second compound 0.01 µM, first compound 0.1 µM
[9] = second compound 0.01 µM, first compound 0.316 µM
[10] = second compound 0.01 µM, first compound 1 µM
[11] = second compound 0.01 µM, first compound 3.16 µM
[12] = second compound 0.01 µM, first compound 10 µM
[13] = second compound 0.0316 µM, first compound 0.0316 µM
[14] = second compound 0.0316 µM, first compound 0.1 µM
[15] = second compound 0.0316 µM, first compound 0.316 µM
[16] = second compound 0.0316 µM, first compound 1 µM
[17] = second compound 0.0316 µM, first compound 3.16 µM
[18] = second compound 0.0316 µM, first compound 10 µM
[19] = second compound 0.1 µM, first compound 0.0316 µM
[20] = second compound 0.1 µM, first compound 0.1 µM
[21] = second compound 0.1 µM, first compound 0.316 µM
[22] = second compound 0.1 µM, first compound 1 µM
[23] = second compound 0.1 µM, first compound 3.16 µM
[24] = second compound 0.1 µM, first compound 10 µM
[25] = second compound 0.316 µM, first compound 0.0316 µM
[26] = second compound 0.316 µM, first compound 0.1 µM
[27] = second compound 0.316 µM, first compound 0.316 µM
[28] = second compound 0.316 µM, first compound 1 µM
[29] = second compound 0.316 µM, first compound 3.16 µM
[30] = second compound 0.316 µM, first compound 10 µM
[31] = second compound 1 µM, first compound 0.0316 µM
[32] = second compound 1 µM, first compound 0.1 µM
[33] = second compound 1 µM, first compound 0.316 µM
[34] = second compound 1 µM, first compound 1 µM
[35] = second compound 1 µM, first compound 3.16 µM
[36] = second compound 1 µM, first compound 10 µM
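Further: spheroids exposed to agents for seven days before readout.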
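Wherever viability, T/C is given: percent of vehicle DMSO control viability which is 100%.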

Cn1nccc1Nc1nccc(-c2ccn(C(CO)c3ccc(Cl)c(F)c3)c(=O)c2)n1 (centres undefined) + CC(Nc1ccc2c(c1)OCCn1cc(N3C(=O)OCC3C(F)F)nc1-2)C(N)=O was tested. Which IC50 (second compound 0.00316 µM) did it give?
The IC50 was 6.06 µM.

And the IC50 (second compound 0.01 µM)?
Its IC50 is 4.63 µM.

And the IC50 (second compound 0.0316 µM)?
The IC50 was 7.18 µM.

And the IC50 (second compound 0.1 µM)?
Its IC50 is 6.97 µM.

And the IC50 (second compound 0.316 µM)?
Its IC50 is 3.89 µM.

What about the IC50 (second compound 1 µM) of the same molecule?
The IC50 was greater than 10 µM.

And the viability, T/C [1]?
The viability, T/C was 87.6%.

What about the viability, T/C [2] of the same molecule?
Its viability, T/C is 72.7%.

And the viability, T/C [3]?
Its viability, T/C is 88.3%.

What about the viability, T/C [4] of the same molecule?
The viability, T/C was 72.5%.

And the viability, T/C [5]?
Its viability, T/C is 83.5%.

What about the viability, T/C [6] of the same molecule?
The viability, T/C was 26.2%.

What about the viability, T/C [7] of the same molecule?
Its viability, T/C is 70%.

What about the viability, T/C [8] of the same molecule?
Its viability, T/C is 79.8%.

What about the viability, T/C [9] of the same molecule?
The viability, T/C was 76.7%.

What about the viability, T/C [10] of the same molecule?
The viability, T/C was 70.9%.

And the viability, T/C [11]?
The viability, T/C was 64.1%.

And the viability, T/C [12]?
Its viability, T/C is 22.2%.

And the viability, T/C [13]?
The viability, T/C was 90.6%.

And the viability, T/C [14]?
The viability, T/C was 102%.

What about the viability, T/C [15] of the same molecule?
The viability, T/C was 90.2%.

What about the viability, T/C [16] of the same molecule?
The viability, T/C was 105%.

And the viability, T/C [17]?
The viability, T/C was 98.5%.

What about the viability, T/C [18] of the same molecule?
Its viability, T/C is 30.9%.

And the viability, T/C [19]?
Its viability, T/C is 58.9%.

What about the viability, T/C [20] of the same molecule?
Its viability, T/C is 84.9%.

What about the viability, T/C [21] of the same molecule?
Its viability, T/C is 92.3%.

And the viability, T/C [22]?
Its viability, T/C is 115%.

And the viability, T/C [23]?
Its viability, T/C is 87%.

What about the viability, T/C [24] of the same molecule?
The viability, T/C was 33%.

And the viability, T/C [25]?
The viability, T/C was 110%.

What about the viability, T/C [26] of the same molecule?
The viability, T/C was 67.6%.

And the viability, T/C [27]?
The viability, T/C was 80.5%.

What about the viability, T/C [28] of the same molecule?
Its viability, T/C is 60.8%.

What about the viability, T/C [29] of the same molecule?
The viability, T/C was 65.7%.

And the viability, T/C [30]?
Its viability, T/C is 33.1%.

What about the viability, T/C [31] of the same molecule?
Its viability, T/C is 55.9%.

What about the viability, T/C [32] of the same molecule?
The viability, T/C was 63.7%.

And the viability, T/C [33]?
The viability, T/C was 72.4%.

And the viability, T/C [34]?
Its viability, T/C is 80.3%.

What about the viability, T/C [35] of the same molecule?
Its viability, T/C is 75.9%.

What about the viability, T/C [36] of the same molecule?
The viability, T/C was 34.4%.

CC(C)NCC(C(=O)N1CCN(c2ncnc3c2C(C)CC3O)CC1)c1ccc(Cl)cc1 (centres undefined) + COc1c(OCCCN2CCOCC2)ccc2c3n(c(=NC(=O)c4cnc(N)nc4)nc12)CCN3 was tested. Which IC50 (second compound 0.00316 µM) did it give?
The IC50 was 0.23 µM.

What about the IC50 (second compound 0.01 µM) of the same molecule?
The IC50 was 0.0884 µM.

What about the IC50 (second compound 0.0316 µM) of the same molecule?
Its IC50 is 0.0767 µM.

And the IC50 (second compound 0.1 µM)?
Its IC50 is less than 0.0316 µM.

What about the IC50 (second compound 0.316 µM) of the same molecule?
The IC50 was less than 0.0316 µM.

And the IC50 (second compound 1 µM)?
The IC50 was less than 0.0316 µM.

And the viability, T/C [1]?
Its viability, T/C is 78.3%.

What about the viability, T/C [2] of the same molecule?
Its viability, T/C is 51.8%.

What about the viability, T/C [3] of the same molecule?
The viability, T/C was 54.5%.

And the viability, T/C [4]?
Its viability, T/C is 30.8%.

What about the viability, T/C [5] of the same molecule?
Its viability, T/C is 23%.

What about the viability, T/C [6] of the same molecule?
The viability, T/C was 15.1%.

What about the viability, T/C [7] of the same molecule?
Its viability, T/C is 65%.

What about the viability, T/C [8] of the same molecule?
The viability, T/C was 49.1%.

What about the viability, T/C [9] of the same molecule?
Its viability, T/C is 24.8%.

What about the viability, T/C [10] of the same molecule?
The viability, T/C was 21.6%.

And the viability, T/C [11]?
Its viability, T/C is 21.2%.

And the viability, T/C [12]?
Its viability, T/C is 10.2%.

What about the viability, T/C [13] of the same molecule?
Its viability, T/C is 72.6%.

What about the viability, T/C [14] of the same molecule?
Its viability, T/C is 40.6%.

And the viability, T/C [15]?
Its viability, T/C is 29.9%.

What about the viability, T/C [16] of the same molecule?
The viability, T/C was 21.4%.

What about the viability, T/C [17] of the same molecule?
Its viability, T/C is 22.9%.

What about the viability, T/C [18] of the same molecule?
Its viability, T/C is 9.33%.

What about the viability, T/C [19] of the same molecule?
Its viability, T/C is 40.7%.

And the viability, T/C [20]?
The viability, T/C was 23.7%.

And the viability, T/C [21]?
Its viability, T/C is 26.5%.

And the viability, T/C [22]?
Its viability, T/C is 15.4%.

What about the viability, T/C [23] of the same molecule?
Its viability, T/C is 13.4%.

And the viability, T/C [24]?
The viability, T/C was 8.69%.

What about the viability, T/C [25] of the same molecule?
The viability, T/C was 20%.

And the viability, T/C [26]?
Its viability, T/C is 19.8%.

And the viability, T/C [27]?
Its viability, T/C is 23.6%.

And the viability, T/C [28]?
Its viability, T/C is 16.6%.

What about the viability, T/C [29] of the same molecule?
Its viability, T/C is 8.4%.

What about the viability, T/C [30] of the same molecule?
Its viability, T/C is 7.04%.

And the viability, T/C [31]?
The viability, T/C was 12.4%.

What about the viability, T/C [32] of the same molecule?
Its viability, T/C is 12.3%.

And the viability, T/C [33]?
The viability, T/C was 13.2%.

And the viability, T/C [34]?
The viability, T/C was 10%.

What about the viability, T/C [35] of the same molecule?
Its viability, T/C is 6.2%.

What about the viability, T/C [36] of the same molecule?
Its viability, T/C is 5%.
